# Results reported in patent US6124263A, “Treatment of tumors by administration of growth hormone releasing compounds and their antagonists” (Asta Medica AG, priority 1998, dated 2000).
# Numbered stars: 1 amine (or outer) side, 2 acyl side, 3 side chain; on linkers, the order of the positions; unused ones are H or OH. Square brackets hold non-standard residues; d marks the D form. Peptide text beside a SMILES is read from it. Haic = O=C1[C@@H](N[*:1])CCc2cccc3c2N1[C@H](C(=O)[*:2])C3; dTrp(2-Me) = Cc1[nH]c2ccccc2c1C[C@@H](N)C(=O)O
# Assays:
# [1] = test system: GHRP receptors; experiment: GHRP receptor assay: 125I-Tyr-Ala-Hexarelin binding to tumor membranes; set-up: species or system human; conditions: for competition with 125I-Tyr-Ala-Hexarelin for the tumoral binding sites (displacement of radiotracer binding): membranes of a non-endocrine carcinoma of lung origin, FIG. 3
# Protocol: Surgical tumor specimens were collected from the Department of Biomedical Sciences and Human Oncology (Division of Pathology) of the University of Turin. A tumor fragment adjacent to that used for histopathological diagnosis was immediately frozen at -80° C. and stored for 2 to 60 months until further processed for binding studies. Samples of 13 invasive breast carcinoma (10 ductal and 3 lobular), 14 non-endocrine lung carcinomas (5 squamous cell and 9 adenocarcinomas), 11 endocrine tumors of the lung, 9 endocrine tumors of the pancreas and 12 thyroid carcinomas (7 of follicular origin and 5 of medullary origin) were used. Non-neoplastic normal tissues of the corresponding organs were also analysed in parallel with the individual tumors.
# GHRP receptors were measured on tumor membranes as described in G. Muccioli et al., Journal of Endocrinology, 157, 99-106, 1998, using ^125 I-Tyr-Ala-Hexarelin as a ligand. Specific binding was calculated as the difference between binding in the absence and in the presence of excess unlabelled Tyr-Ala-Hexarelin and expressed as a percentage of the radioactivity added. Saturation and competition binding studies were analyzed with the GraphPAD Prism 2 program (GraphPAD Software, San Diego, Calif., USA).
# [2] = test system: Human lung carcinoma cells (CaLu1); type: cell-based; conditions: for effect on basal and EGF-stimulated 3H-thymidine incorporation: 10-6 mol/l compound, 20 h + 4 h incubation, FIG. 4; for EC50: 3 h
# Protocol: Human lung carcinoma cells (CaLu1), T47D and MDA-MB231, respectively, human oestrogen dependent and oestrogen independent breast cancer cell lines were purchased from the ATCC (Rockville, Md., USA). Cells were routinely cultured in […] flasks at 37° C., 5% CO2 and 95% humidified atmosphere in RPMI supplemented with 10% FCS, penicillin-streptomycin and fungizone. When a subconfluent state was reached, cells were detached from the flasks with trypsin/EDTA. DNA synthesis was evaluated by ^3 H-thymidine incorporation as described in G. Muccioli et al., Journal of Endocrinology, 153, 365-371, 1997. […] After incubation for 20 hours, ^3 H-thymidine was added and incubation was continued for a further 4 hours. The reaction was halted and the cells were harvested onto glass-fiber filter strips. Incorporation of ^3 H-thymidine was measured in a scintillation counter.
# [3] = test system: Human lung carcinoma cells (CaLu1); experiment: Cell growth study (cell count), human lung carcinoma cells; type: cell-based; conditions: FIG. 6
# Protocol: (§1) Human lung carcinoma cells (CaLu1), T47D and MDA-MB231, respectively, human oestrogen dependent and oestrogen independent breast cancer cell lines were purchased from the ATCC (Rockville, Md., USA). Cells were routinely cultured in […] flasks at 37° C., 5% CO2 and 95% humidified atmosphere in RPMI supplemented with 10% FCS, penicillin-streptomycin and fungizone. When a subconfluent state was reached, cells were detached from the flasks with trypsin/EDTA. Cell growth studies were carried out as described in P.Cassoni et al., Virchows Archiv, 425, 467-472, 1994. Cells were seeded in triplicate in 24-multiwell plates at a density of 5,000-10,000 cells/ml. Twenty-four hours after plating the medium was changed. Hexarelin or Ala-Hexarelin were added where requested at concentrations ranging from 10^-8 to 10^-6 mol/l. The medium was changed every 48 hours. Cells were counted at 48 and 72 or 96 hours of treatment in a double blind analysis by two independent investigators using a haemocytometer.
# [4] = test system: human breast cancer T47D cells; experiment: Cell growth study (cell count), T47D cells; type: cell-based; conditions: FIG. 7a
# Protocol: as §1
# [5] = test system: human breast cancer MDA-MB231 cells; experiment: Cell growth study (cell count), MDA-MB231 cells; type: cell-based; conditions: FIG. 8a
# Protocol: as §1
# [6] = 10^-7 mol/l and 10^-6 mol/l, any time point tested
compound,measurement,setting,value
"Cc1[nH]c2ccccc2c1C[C@@H](NC(=O)[C@@H](N)Cc1cnc[nH]1)C(=O)N[C@@H](C)C(=O)N[C@@H](Cc1c[nH]c2ccccc12)C(=O)N[C@H](Cc1ccccc1)C(=O)N[C@@H](CCCCN)C(N)=O [Hexarelin, His-D-Mrp-Ala-Trp-D-Phe-Lys-NH2] (H-H[dTrp(2-Me)]AW[dF]K-NH2)",competition with 125I-Tyr-Ala-Hexarelin for the tumoral binding sites (displacement of radiotracer binding),[1],displaced in a dose-dependent fashion
same,effect on basal and EGF-stimulated 3H-thymidine incorporation,[2]; EGF 1 ng/ml,able to inhibit both basal and the EGF-stimulated
same,inhibition of the proliferative effect of EGF with increasing concentrations,"[2]; 10^-8 to 10^-6 mol/l, EGF 1 ng/ml, FIG. 5",inhibited in a dose-dependent fashion
same,EC50,[2],80 nM
same,decrease in cell number compared with control at higher concentrations,[3]; [6],further increased
same,decrease in cell number compared with control,"[3]; 10^-8 mol/l, after 96 hours",-47%
same,decrease in cell number compared with control at higher concentrations,[4]; [6],further increased
same,decrease in cell number compared with control,"[4]; 10^-8 mol/l, after 96 hours",-54%
same,decrease in cell number compared with control at higher concentrations,[5]; [6],further increased
same,decrease in cell number compared with control,"[5]; 10^-8 mol/l, after 72 hours",-33%
"CC(C)(N)C(=O)N[C@H](COCc1ccccc1)C(=O)N1CCC2(CC1)CN(S(C)(=O)=O)c1ccccc12 [MK0677, reference compound]",competition with 125I-Tyr-Ala-Hexarelin for the tumoral binding sites (displacement of radiotracer binding),[1],negligible displacement
same,effect on basal and EGF-stimulated 3H-thymidine incorporation,[2]; EGF 1 ng/ml,slight inhibition
^125 I-Tyr-Ala-His-D-Mrp-Ala-Trp-D-Phe-Lys-NH2 [^125 I-Tyr-Ala-Hexarelin],"binding of 125I-Tyr-Ala-Hexarelin to tumor membranes as a function of radioligand concentration (saturation, Scatchard)","[1]; non-endocrine carcinoma of lung origin, FIG. 2",saturable specific binding
"Cc1[nH]c2ccccc2c1C[C@@H](NC(=O)[C@H](Cc1c[nH]cn1)NC(=O)[C@H](C)N)C(=O)N[C@@H](C)C(=O)N[C@@H](Cc1c[nH]c2ccccc12)C(=O)N[C@H](Cc1ccccc1)C(=O)N[C@@H](CCCCN)C(N)=O [Ala-Hexarelin, Ala-His-D-Mrp-Ala-Trp-D-Phe-Lys-NH2] (H-AH[dTrp(2-Me)]AW[dF]K-NH2)",EC50,[2],100 nM
"NCCCC[C@H](NC(=O)[C@@H](Cc1ccccc1)NC(=O)[C@H](Cc1c[nH]c2ccccc12)NC(=O)[C@@H](CCCCN)NC(=O)[C@@H](Cc1c[nH]c2ccccc12)NC(=O)[C@@H](N)Cc1c[nH]cn1)C(N)=O [(D-Lys)3 -GHRP6, His-D-Trp-D-Lys-Trp-D-Phe-Lys-NH2] (H-H[dW][dK]W[dF]K-NH2)",EC50,[2],90 nM
"Cc1[nH]c2ccccc2c1C[C@@H](NC(=O)[C@H](Cc1c[nH]cn1)NC(=O)[C@H](C)NC(=O)[C@@H](N)Cc1ccc(O)cc1)C(=O)N[C@@H](C)C(=O)N[C@@H](Cc1c[nH]c2ccccc12)C(=O)N[C@H](Cc1ccccc1)C(=O)N[C@@H](CCCCN)C(N)=O [Tyr-Ala-Hexarelin, Tyr-Ala-His-D-Mrp-Ala-Trp-D-Phe-Lys-NH2] (H-YAH[dTrp(2-Me)]AW[dF]K-NH2)",EC50,[2],65 nM
"Cc1[nH]c2ccccc2c1C[C@@H](NC(=O)[C@@H]1Cc2cccc3c2N1C(=O)[C@@H](N)CC3)C(=O)N[C@H](CCCCN)C(=O)N[C@@H](Cc1c[nH]c2ccccc12)C(=O)N[C@H](Cc1ccccc1)C(=O)N[C@@H](CCCCN)C(N)=O [EP80317, HAIC-D-Mrp-D-Lys-Trp-D-Phe-Lys-NH2] (Haic-[dTrp(2-Me)][dK]W[dF]K-NH2)",EC50,[2],56 nM
GHRH: Human GHRH (GHRH 1-44) purchased from Bachem,competition with 125I-Tyr-Ala-Hexarelin for the tumoral binding sites (displacement of radiotracer binding),[1],no competition
C[C@H](N)C(=O)NCC(=O)N[C@H]1CSSC[C@@H](C(=O)O)NC(=O)[C@H](CO)NC(=O)[C@H]([C@@H](C)O)NC(=O)[C@H](Cc2ccccc2)NC(=O)[C@H]([C@@H](C)O)NC(=O)[C@H](CCCCN)NC(=O)[C@H](Cc2c[nH]c3ccccc23)NC(=O)[C@H](Cc2ccccc2)NC(=O)[C@H](Cc2ccccc2)NC(=O)[C@H](CC(N)=O)NC(=O)[C@H](CCCCN)NC1=O [somatostatin],competition with 125I-Tyr-Ala-Hexarelin for the tumoral binding sites (displacement of radiotracer binding),[1],no competition
